Reference: patent US9034886B2, “4-aminoquinazoline derivatives and uses thereof” (Shanghai Institute of Pharmaceutical Industry, priority 2011, dated 2015)
Like-named read-outs stand apart in the source and are kept apart here.

What was measured:
[1] = tested on: HDACs; experiment: In vitro inhibition of HDACs (HDAC Inhibitor Drug Screening Kit, Biovision K340-100); assay type: biochemical
Method: The in vitro inhibitory activities of the compounds towards HDACs were tested according to the instructions in the HDAC Inhibitor Drug Screening Kit (Biovision/Catalog #K340-100).
(1) The compounds to be tested were each individually prepared as 2 mM, 200 μM and 40 μM solutions and their inhibitory activities at these concentrations were tested.

[2] = target: HDAC1 (Homo sapiens (Human), UniProt Q13547); experiment: In vitro inhibition of subtype HDAC1 (HDAC1 Inhibitor Drug Screening Kit, Biovision); assay type: biochemical; conditions: for inhibition at 1 µM / inhibition at 10 µM: read-out: % Inhibition towards HDAC1; for inhibitory activity against HDAC1 compared with MS-275: both concentrations 10 μM and 1 μM
Sequence of HDAC1 (Q13547 whole entry): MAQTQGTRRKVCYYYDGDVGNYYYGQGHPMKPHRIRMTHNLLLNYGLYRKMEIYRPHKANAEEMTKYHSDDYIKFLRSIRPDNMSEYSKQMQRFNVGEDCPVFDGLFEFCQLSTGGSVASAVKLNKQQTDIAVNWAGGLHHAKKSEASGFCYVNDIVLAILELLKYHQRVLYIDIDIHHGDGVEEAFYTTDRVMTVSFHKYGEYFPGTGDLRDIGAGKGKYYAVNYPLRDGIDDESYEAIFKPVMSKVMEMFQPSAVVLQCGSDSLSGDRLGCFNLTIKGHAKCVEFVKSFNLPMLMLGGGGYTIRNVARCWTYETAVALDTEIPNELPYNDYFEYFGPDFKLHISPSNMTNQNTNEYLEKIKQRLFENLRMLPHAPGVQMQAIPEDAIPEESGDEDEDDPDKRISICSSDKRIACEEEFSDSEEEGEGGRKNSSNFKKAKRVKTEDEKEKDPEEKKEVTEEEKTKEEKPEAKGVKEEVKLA
Method: The in vitro inhibitory activities of the compounds towards the subtype HDAC1 were tested according to the instructions in the HDAC1 Inhibitor Drug Screening Kit (Biovision).
(1) The compounds to be tested were each individually prepared as 10 μM and 1 μM solutions and their inhibitory activities at these concentrations were tested.
Each dilution sample was placed in two wells and the enzyme inhibition IC50 of the compound was tested.

[3] = tested on: Hut78 T lymphocytic leukemia cells; experiment: In vitro anti-proliferative effect, CCK-8 method, Hut78; assay type: cell-based; conditions: Homo sapiens, HuT78; for inhibition at 10 µM / inhibition at 100 µM: read-out: Hut-78 (inhibition %)
How it was run: (§1)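 Percent growth inhibition, measured with CCK-8, in Hut78 and K562 leukemia cells at two compound concentrations, 10 μM and 100 μM.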

[4] = tested on: PANC-1 human pancreatic cancer cells; experiment: In vitro anti-proliferative effect, CCK-8 method, PANC-1; assay type: cell-based; conditions: Homo sapiens, PANC-1
How it was run: (§2)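 Read-out: CCK-8 viability, expressed as % inhibition; two test concentrations, 100 μM and 10 μM.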

[5] = tested on: Jurkat E6-1 human T-cell lymphoma; experiment: In vitro anti-proliferative effect, CCK-8 method, Jurkat E6-1; assay type: cell-based; conditions: Homo sapiens, Jurkat E6.1
How it was run: as §2

[6] = tested on: K562 human chronic myelogenous leukemia cells; experiment: In vitro anti-proliferative effect, CCK-8 method, K562; assay type: cell-based; conditions: Homo sapiens, K562
How it was run: as §1

[7] = tested on: A549 human lung cancer cells; experiment: In vitro anti-proliferative effect, CCK-8 method, A549; assay type: cell-based; conditions: Homo sapiens, A549
How it was run: as §2

[8] = tested on: MDA-MB-435s human breast cancer cells; experiment: In vitro anti-proliferative effect, CCK-8 method, MDA-MB-435s; assay type: cell-based; conditions: Homo sapiens, MDA-MB-435S
How it was run: as §2

[9] = tested on: Hep3B2.1-7 human liver cancer cells; experiment: In vitro anti-proliferative effect, CCK-8 method, Hep3B; assay type: cell-based; conditions: Homo sapiens; for inhibition at 10 µM / inhibition at 100 µM: Hep3B cell strain, CCK-8 method; for inhibition at 10 µM: compound at 10 μM; for inhibition at 100 µM: compound at 100 μM
How it was run: as §2

[10] = tested on: PC-3 human prostate cancer; experiment: In vitro anti-proliferative effect, CCK-8 method, PC-3; assay type: cell-based; conditions: Homo sapiens, PC-3 cell strain, CCK-8 method; for inhibition at 10 µM: compound at 10 μM; for inhibition at 100 µM: compound at 100 μM
How it was run: as §2

[11] = tested on: Colo320 human colorectal cancer cell lines; experiment: In vitro anti-proliferative effect, CCK-8 method, Colo320; assay type: cell-based; conditions: Homo sapiens, COLO 320, Colo320 cell strain, CCK-8 method; for inhibition at 10 µM: compound at 10 μM; for inhibition at 100 µM: compound at 100 μM
How it was run: as §2

[12] = Maximum tolerance dose through intragastrical administration; assay type: in vivo; conditions: mice, administrated intragastrically
Method: Forty ICR mice, half female and half male, weighing […] were divided into four groups, 10 mice in each group. After the mice were fasted for 6 h, the compound to be tested was administrated intragastrically to each group at a volume of 0.3 ml/10 g by using a sterile plastic syringe. General physical signs and the deaths of the animals were record at 1, 2 and 4 h after the administration. The animals were then observed continuously for 14 days and their weights, physical signs and deaths were observed and recorded every day. Dead animals were dissected to see if there was any visible pathological change in the animal's viscera and pathological examination was performed on suspicious tissues and organs. A part of the experimental results is as follows.

[13] = target: hERG potassium channel (Homo sapiens (Human), UniProt Q12809); experiment: Effects on hERG potassium channel; assay type: cell-based
Sequence of hERG potassium channel (Q12809 whole entry): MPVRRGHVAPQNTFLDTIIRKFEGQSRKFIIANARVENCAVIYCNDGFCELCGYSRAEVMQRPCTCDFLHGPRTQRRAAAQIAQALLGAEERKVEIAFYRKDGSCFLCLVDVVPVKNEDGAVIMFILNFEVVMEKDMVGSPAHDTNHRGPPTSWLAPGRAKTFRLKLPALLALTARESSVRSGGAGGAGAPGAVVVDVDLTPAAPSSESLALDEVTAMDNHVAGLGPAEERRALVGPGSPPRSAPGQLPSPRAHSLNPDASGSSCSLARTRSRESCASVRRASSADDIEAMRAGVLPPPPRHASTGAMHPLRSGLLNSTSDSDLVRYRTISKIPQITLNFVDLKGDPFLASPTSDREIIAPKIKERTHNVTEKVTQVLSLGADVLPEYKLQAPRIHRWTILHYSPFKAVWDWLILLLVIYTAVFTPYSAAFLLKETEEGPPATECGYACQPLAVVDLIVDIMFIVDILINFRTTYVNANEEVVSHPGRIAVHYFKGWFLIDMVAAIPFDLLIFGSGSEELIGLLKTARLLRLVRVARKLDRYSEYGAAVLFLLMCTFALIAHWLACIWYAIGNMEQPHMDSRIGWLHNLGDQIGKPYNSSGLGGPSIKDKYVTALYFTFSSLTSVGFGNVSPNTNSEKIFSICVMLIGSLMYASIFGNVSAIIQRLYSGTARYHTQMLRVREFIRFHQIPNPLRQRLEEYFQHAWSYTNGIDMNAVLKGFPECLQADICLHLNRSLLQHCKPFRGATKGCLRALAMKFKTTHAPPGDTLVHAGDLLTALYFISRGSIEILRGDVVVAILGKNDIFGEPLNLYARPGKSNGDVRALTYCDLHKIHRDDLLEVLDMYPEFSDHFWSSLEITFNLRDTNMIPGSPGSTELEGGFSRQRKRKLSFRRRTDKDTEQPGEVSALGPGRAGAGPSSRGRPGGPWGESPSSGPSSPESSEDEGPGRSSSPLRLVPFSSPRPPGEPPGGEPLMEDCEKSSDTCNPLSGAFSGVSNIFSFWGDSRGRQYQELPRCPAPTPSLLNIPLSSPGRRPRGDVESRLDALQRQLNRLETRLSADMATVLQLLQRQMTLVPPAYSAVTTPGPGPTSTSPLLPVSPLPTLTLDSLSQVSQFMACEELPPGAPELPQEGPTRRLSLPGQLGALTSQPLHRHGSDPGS

[14] = Preliminary pharmacokinetics; conditions: in vivo, rat
[15] = tested on: human A549 tumors; experiment: Human A549 tumors transplanted in nude mice; assay type: in vivo; conditions: 50 mg/kg

COC(=O)Cc1ccc2ncnc(Nc3ccc(C(=O)Nc4ccccc4N)cc3)c2c1 [Compound V-22, N-(2-aminophenyl)-4-(6-methoxycarbonylmethylquinazoline-4-amino)benzamide]
Inhibition percentage (%) towards HDACs ([1]; 40 μM): 19.9% | Inhibition percentage (%) towards HDACs ([1]; 200 μM): 47.5% | Inhibition percentage (%) towards HDACs ([1]; 2 mM): 84.2% | inhibition at 1 µM [2]: 23.1% | inhibition at 10 µM [2]: 63% | inhibition at 10 µM [3]: 42.3% | inhibition at 100 µM [3]: 91.8% | inhibition at 10 µM [4]: 12.3% | inhibition at 100 µM [4]: 39.4% | inhibition at 10 µM [5]: 83.1% | inhibition at 100 µM [5]: 88.2% | inhibition at 10 µM [6]: 60.9% | inhibition at 100 µM [6]: 83.4% | inhibition at 10 µM [7]: 21.8% | inhibition at 100 µM [7]: 69.9% | inhibition at 10 µM [8]: 18% | inhibition at 100 µM [8]: 81.4% | inhibition at 10 µM [9]: 38.3% | inhibition at 100 µM [9]: 69.2% | inhibition at 10 µM [10]: 44.6% | inhibition at 100 µM [10]: 69% | inhibition at 10 µM [11]: 5.4% | inhibition at 100 µM [11]: 40.8% | maximum tolerance dose [12]: over 2000 mg/kg

COc1cc2ncnc(Nc3ccc(C(=O)Nc4cc(-c5ccccc5)ccc4N)cc3)c2cc1OC [Compound V-24, N-[2-amino-5-(phenyl)phenyl]-4-(6,7-dimethoxyquinazoline-4-amino)benzamide]
Inhibition percentage (%) towards HDACs ([1]; 40 μM): 24.2% | Inhibition percentage (%) towards HDACs ([1]; 200 μM): 55.2% | Inhibition percentage (%) towards HDACs ([1]; 2 mM): 76.1% | inhibition at 1 µM [2]: 51% | inhibition at 10 µM [2]: 73.3% | inhibitory activity against HDAC1 compared with MS-275 [2]: superior to that of MS-275 | inhibition at 10 µM [3]: 15.5% | inhibition at 100 µM [3]: 72.9% | inhibition at 10 µM [4]: 17.5% | inhibition at 100 µM [4]: 22.1% | inhibition at 10 µM [5]: 30.7% | inhibition at 100 µM [5]: 91.4% | inhibition at 10 µM [6]: -1.7% | inhibition at 100 µM [6]: 75.3% | inhibition at 10 µM [7]: 7.3% | inhibition at 100 µM [7]: 20.8% | inhibition at 10 µM [8]: -10.8% | inhibition at 100 µM [8]: 24.5% | inhibition at 10 µM [9]: 14.3% | inhibition at 100 µM [9]: 69.5% | inhibition at 10 µM [10]: 13.1% | inhibition at 100 µM [10]: 63.7% | inhibition at 10 µM [11]: -1.7% | inhibition at 100 µM [11]: 16.5% | maximum tolerance dose [12]: over 2000 mg/kg

COc1cc2ncnc(Nc3ccc(C(=O)Nc4cc(-c5ccco5)ccc4N)cc3)c2cc1OC [Compound V-25, N-[2-amino-5-(2-furyl)phenyl]-4-(6,7-dimethoxyquinazoline-4-amino)benzamide]
Inhibition percentage (%) towards HDACs ([1]; 40 μM): 20.5% | Inhibition percentage (%) towards HDACs ([1]; 200 μM): 55.2% | Inhibition percentage (%) towards HDACs ([1]; 2 mM): 72.8% | inhibition at 1 µM [2]: 24.2% | inhibition at 10 µM [2]: 53.8% | inhibition at 10 µM [3]: 18.1% | inhibition at 100 µM [3]: 60% | inhibition at 10 µM [4]: 20.8% | inhibition at 100 µM [4]: 39.5% | inhibition at 10 µM [5]: 12.5% | inhibition at 100 µM [5]: 83.3% | inhibition at 10 µM [6]: 34.1% | inhibition at 100 µM [6]: 64.8% | inhibition at 10 µM [7]: 2.4% | inhibition at 100 µM [7]: 12% | inhibition at 10 µM [8]: 30.8% | inhibition at 100 µM [8]: 61.2% | inhibition at 10 µM [9]: 11.3% | inhibition at 100 µM [9]: 40.6% | inhibition at 10 µM [10]: -9.4% | inhibition at 100 µM [10]: 22.1% | inhibition at 10 µM [11]: 7.9% | inhibition at 100 µM [11]: 14.1% | maximum tolerance dose [12]: over 5000 mg/kg

Nc1ccccc1NC(=O)c1ccc(CNc2ncnc3ccccc23)cc1 [Compound V-27, N-(2-aminophenyl)-4-[(quinazoline-4-amino)methyl]benzamide]
IC50 [1]: 1310 nM | inhibitory activity according to in vitro IC50 value against HDACs compared with MS-275 [1]: better inhibitory activities than MS-275 | Inhibition percentage (%) towards HDACs ([1]; 40 μM): 73.2% | Inhibition percentage (%) towards HDACs ([1]; 200 μM): 82.6% | Inhibition percentage (%) towards HDACs ([1]; 2 mM): 91.9% | inhibitory activity on HDACs compared with MS-275 ([1]; concentrations of 2 mM, 200 μM, and 40 μM): significantly stronger inhibitory activities than MS-275 | IC50 [2]: 212 nM | inhibition at 1 µM [2]: 58.3% | inhibition at 10 µM [2]: 83% | inhibitory activity against HDAC1 compared with MS-275 [2]: superior to that of MS-275 | IC50 [3]: 356 nM | inhibition at 10 µM [3]: 69.2% | inhibition at 100 µM [3]: 89.3% | inhibition at 10 µM [4]: 44.4% | inhibition at 100 µM [4]: 69.5% | IC50 [5]: 458 nM | inhibition at 10 µM [5]: 31.6% | inhibition at 100 µM [5]: 87.6% | IC50 [6]: 437 nM | inhibition at 10 µM [6]: 45% | inhibition at 100 µM [6]: 75% | IC50 [7]: 3140 nM | inhibition at 10 µM [7]: 82.8% | inhibition at 100 µM [7]: 97.7% | inhibition at 10 µM [8]: 28.5% | inhibition at 100 µM [8]: 76.3% | IC50 ([9]; Hep3B): 1520 nM | inhibition at 10 µM [9]: -12.3% | inhibition at 100 µM [9]: 68.3% | inhibition at 10 µM [10]: 43.8% | inhibition at 100 µM [10]: 59.9% | inhibition at 10 µM [11]: 60% | inhibition at 100 µM [11]: 82.3% | maximum tolerance dose [12]: over 2000 mg/kg | inhibition at 10 µM ([13]; human, hERG potassium current, 10 μM, read-out: Maximum inhibition percentage at 10 μM (%)): 29.9 ± 6.7% | IC50 ([13]; read-out: Half inhibition concentration for the effect on hERG potassium current, IC50): > 10000 nM | half-life ([14]; iv, 2 mg/kg, i.v., read-out: Intravenous half-life (converted)): 0.95 h | bioavailability ([14]; oral): 28.6% | half-life ([14]; oral, read-out: Oral half-life (converted)): 3.37 h | antitumor effect on nude mice xenograft model A549 [15]: significantly inhibit the growth of tumor | mortality and weight loss in nude mice [15]: no mortality and significant weight loss | tumor inhibition %, A549 (lung cancer) ([15]; nude mice): 61.83% | deaths, A549 model ([15]; nude mice, 8 mice in each group): no death

Nc1ccc(F)cc1NC(=O)c1ccc(CNc2ncnc3ccccc23)cc1 [Compound V-29, N-(2-amino-5-fluorophenyl)-4-[(quinazoline-4-amino)methyl]benzamide]
Inhibition percentage (%) towards HDACs ([1]; 40 μM): 8.6% | Inhibition percentage (%) towards HDACs ([1]; 200 μM): 31.0% | Inhibition percentage (%) towards HDACs ([1]; 2 mM): 37.8% | IC50 [2]: 517 nM | inhibition at 1 µM [2]: 41.4% | inhibition at 10 µM [2]: 63.2% | inhibition at 10 µM [3]: 79.4% | inhibition at 100 µM [3]: 94% | inhibition at 10 µM [4]: 0.9% | inhibition at 100 µM [4]: 18.4% | inhibition at 10 µM [5]: 51.5% | inhibition at 100 µM [5]: 96.2% | inhibition at 10 µM [6]: 57.4% | inhibition at 100 µM [6]: 83.8% | inhibition at 10 µM [7]: 6.3% | inhibition at 100 µM [7]: 69.8% | inhibition at 10 µM [8]: 10.1% | inhibition at 100 µM [8]: 78.5% | inhibition at 10 µM [9]: 22.5% | inhibition at 100 µM [9]: 60.5% | inhibition at 10 µM [10]: 88% | inhibition at 100 µM [10]: 94.5% | inhibition at 10 µM [11]: -7.2% | inhibition at 100 µM [11]: 35.5% | maximum tolerance dose [12]: over 5000 mg/kg
